{"source": "patent US10335373B2", "about": "“Tamper resistant and dose-dumping resistant pharmaceutical dosage form” (GRÜNENTHAL GMBH, priority 2012, dated 2019)", "note": "Where a name gives a salt, the structure may show the parent alone.", "data": [{"molecule": "C=CCN1CC[C@]23c4c5ccc(O)c4O[C@H]2C(=O)CC[C@@]3(O)[C@H]1C5", "note": "[naloxone hydrochloride]", "values": [{"measurement": "solubility in aqueous ethanol", "value": "soluble"}]}]}
